Results: ChEMBL document CHEMBL1140570, “Synthesis and antimicrobial evaluation of guanylsulfonamides” (2007)
Values after ≈ are worked out from the molar mass of the structure shown. Active and inactive are the calls of the source. The calls are words filed in the database; no cut-off is given here.

Experiments:
[1] = tested on: Klebsiella pneumoniae; experiment: Antibacterial activity against Klebsiella pneumoniae ATCC 13883 by serial dilution method; assay type: functional
[2] = tested on: Aspergillus flavus; experiment: Antifungal activity against Aspergillus flavus NCIM 539 by serial dilution method; assay type: functional
[3] = tested on: Enterococcus faecalis; experiment: Antibacterial activity against Streptococcus faecalis ATCC 29212 by serial dilution method; assay type: functional
[4] = tested on: Escherichia coli; experiment: Antibacterial activity against Escherichia coli ATCC 25922 by serial dilution method; assay type: functional
[5] = tested on: Pseudomonas aeruginosa; experiment: Antibacterial activity against Pseudomonas aeruginosa ATCC 27853 by serial dilution method; assay type: functional
[6] = tested on: Staphylococcus aureus; experiment: Antibacterial activity against Staphylococcus aureus ATCC 25923 by serial dilution method; assay type: functional
[7] = tested on: Candida albicans; experiment: Antifungal activity against Candida albicans NCIM C27 by serial dilution method; assay type: functional
[8] = tested on: Aspergillus niger; experiment: Antifungal activity against Aspergillus niger NCIM 590 by serial dilution method; assay type: functional
[9] = tested on: Bacillus subtilis; experiment: Antibacterial activity against Bacillus subtilis ATCC 6033 by serial dilution method; assay type: functional
[10] = tested on: Aspergillus flavus; experiment: Antifungal activity against Aspergillus flavus NCIM 539 at 64 ug/mL by serial dilution method; assay type: functional, organism-based
[11] = tested on: Candida albicans; experiment: Antifungal activity against Candida albicans NCIM C27 at 64 ug/mL by serial dilution method; assay type: functional, organism-based
[12] = tested on: Aspergillus niger; experiment: Antifungal activity against Aspergillus niger NCIM 590 at 64 ug/mL by serial dilution method; assay type: functional, organism-based
[13] = tested on: Escherichia coli; experiment: Antibacterial activity against Escherichia coli ATCC 25922 at 64 ug/mL by serial dilution method; assay type: functional, organism-based
[14] = tested on: Klebsiella pneumoniae; experiment: Antibacterial activity against Klebsiella pneumoniae ATCC 13883 at 64 ug/mL by serial dilution method; assay type: functional, organism-based
[15] = tested on: Bacillus subtilis; experiment: Antibacterial activity against Bacillus subtilis ATCC 6033 at 64 ug/mL by serial dilution method; assay type: functional, organism-based

| Compound | MIC [1] [µg/mL] | MIC [2] [µg/mL] | MIC [3] [µg/mL] | MIC [4] [µg/mL] | MIC [5] [µg/mL] | MIC [6] [µg/mL] | MIC [7] [µg/mL] | MIC [8] [µg/mL] | MIC [9] [µg/mL] | Activity [10] | Activity [11] | Activity [12] | Activity [13] | Activity [14] | Activity [15] |
| --- | --- | --- | --- | --- | --- | --- | --- | --- | --- | --- | --- | --- | --- | --- | --- |
| COc1cc(S(=O)(=O)N2CCC(C)CC2)ccc1-n1cnc2c(=O)[nH]c(N)nc21 | 32 (≈ 76.5 µM) | 16 (≈ 38.2 µM) | 32 (≈ 76.5 µM) | 16 (≈ 38.2 µM) | 64 (≈ 153 µM) | 32 (≈ 76.5 µM) | 32 (≈ 76.5 µM) | 32 (≈ 76.5 µM) | 16 (≈ 38.2 µM) | – | – | – | – | – | – |
| Nc1nc2c(ncn2-c2ccc(S(=O)(=O)N3CCCCC3)cc2F)c(=O)[nH]1 | 32 (≈ 81.5 µM) | – | 16 (≈ 40.8 µM) | 64 (≈ 163 µM) | 64 (≈ 163 µM) | 32 (≈ 81.5 µM) | – | – | 32 (≈ 81.5 µM) | inactive | inactive | inactive | – | – | – |
| CC1CCN(S(=O)(=O)c2ccc(-n3cnc4c(=O)[nH]c(N)nc43)c(F)c2)CC1 | 32 (≈ 78.7 µM) | 64 (≈ 157 µM) | 32 (≈ 78.7 µM) | 32 (≈ 78.7 µM) | 64 (≈ 157 µM) | 32 (≈ 78.7 µM) | 64 (≈ 157 µM) | 32 (≈ 78.7 µM) | 64 (≈ 157 µM) | – | – | – | – | – | – |
| CCn1cc(C(=O)O)c(=O)c2cc(F)c(N3CCNCC3)cc21 [NORFLOXACIN] | 16 (≈ 50.1 µM) | – | 8 (≈ 25.1 µM) | 16 (≈ 50.1 µM) | 8 (≈ 25.1 µM) | 8 (≈ 25.1 µM) | – | – | 32 (≈ 100 µM) | – | – | – | – | – | – |
| COc1cc(S(=O)(=O)N2CCCCC2)ccc1-n1cnc2c(=O)[nH]c(N)nc21 | 32 (≈ 79.1 µM) | 16 (≈ 39.6 µM) | 64 (≈ 158 µM) | 32 (≈ 79.1 µM) | 64 (≈ 158 µM) | 64 (≈ 158 µM) | 32 (≈ 79.1 µM) | 16 (≈ 39.6 µM) | 16 (≈ 39.6 µM) | – | – | – | – | – | – |
| CC1CCN(S(=O)(=O)c2ccc(-n3cnc4c(=O)[nH]c(N)nc43)c(Cl)c2)CC1 | 16 (≈ 37.8 µM) | 32 (≈ 75.7 µM) | 8 (≈ 18.9 µM) | 16 (≈ 37.8 µM) | 16 (≈ 37.8 µM) | 4 (≈ 9.46 µM) | 64 (≈ 151 µM) | 32 (≈ 75.7 µM) | 32 (≈ 75.7 µM) | – | – | – | – | – | – |

Continued, in another order:

| MIC [1] [µg/mL] | MIC [2] [µg/mL] | MIC [3] [µg/mL] | MIC [4] [µg/mL] | MIC [5] [µg/mL] | MIC [6] [µg/mL] | MIC [7] [µg/mL] | MIC [8] [µg/mL] | MIC [9] [µg/mL] | Compound | Activity [10] | Activity [11] | Activity [12] | Activity [13] | Activity [14] | Activity [15] |
| --- | --- | --- | --- | --- | --- | --- | --- | --- | --- | --- | --- | --- | --- | --- | --- |
| – | – | 64 (≈ 165 µM) | – | 64 (≈ 165 µM) | 64 (≈ 165 µM) | – | – | 64 (≈ 165 µM) | CC1CCN(S(=O)(=O)c2ccc(-n3cnc4c(=O)[nH]c(N)nc43)cc2)CC1 | inactive | inactive | inactive | inactive | inactive | inactive |
| – | – | 64 (≈ 171 µM) | – | 64 (≈ 171 µM) | 64 (≈ 171 µM) | – | – | – | Nc1nc2c(ncn2-c2ccc(S(=O)(=O)N3CCCCC3)cc2)c(=O)[nH]1 | inactive | inactive | inactive | inactive | inactive | inactive |
| 16 (≈ 39.1 µM) | 64 (≈ 157 µM) | 4 (≈ 9.78 µM) | 16 (≈ 39.1 µM) | 8 (≈ 19.6 µM) | 4 (≈ 9.78 µM) | 64 (≈ 157 µM) | 64 (≈ 157 µM) | 32 (≈ 78.3 µM) | Nc1nc2c(ncn2-c2ccc(S(=O)(=O)N3CCCCC3)cc2Cl)c(=O)[nH]1 | – | – | – | – | – | – |
